We go through 13 compounds from patent US6093838A, “Amines substituted with a dihydro-benzofuranyl or with a dihydro-isobenzofuranyl group, an aryl or heteroaryl group and an alkyl group, having retinoid-like biological activity” (Allergan Sales, Inc., priority 1999, dated 2000).

Assay [1] addresses RXRγ. Briefly: ligand binding assay, RXRγ. The settings on record: read-out: RXR Bind Ki γ. From the text: (§1) Other assays described below, measure the ability of the compounds of the present invention to bind to, and/or activate various retinoid receptor subtypes. When in these assays a compound binds to a given receptor subtype and activates the transcription of a reporter gene through that subtype, then the compound is considered an agonist of that receptor subtype. […] In the below described assays the ability of the compounds to bind to RARα, RARβ, RARγ, RXRα, RXRβ and RXRγ receptors, and the ability or inability of the compounds to activate transcription of a reporter gene through these receptor subtypes can be tested. […] However, some of the compounds of the invention may behave as retinoid antagonists or partial antagonists and/or as inverse agonists. Because of the complex distribution of the different retinoid receptors in various organs of the mammalian body partial agonists and partial antagonists and compounds which have the characteristics of both may lend themselves to particularly useful therapeutic applications and may avoid serious side effects of conventional retinoid drugs.
(§2) A holoreceptor transactivation assay and a ligand binding assay which measure the antagonist/agonist like activity of the compounds of the invention, or their ability to bind to the several retinoid receptor subtypes, respectively, are described in published PCT Application No. WO WO93/11755 (particularly on pages 30-33 and 37-41) published on Jun. 24, 1993, the specification of which is also incorporated herein by reference. A detailed experimental procedure for holoreceptor transactivations has been described by Heyman et al. Cell 68, 397-406, (1992); Allegretto et al. J. Biol. Chem. 268, 26625-26633, and Mangelsdorf et al. The Retinoids: Biology, Chemistry and Medicine, pp 319-349, Raven Press Ltd., New York, which are expressly incorporated herein by reference. The results obtained in this assay are expressed in EC50 numbers, as they are also in the chimeric receptor transactivation assay. The results of ligand binding assay are expressed in Kd numbers. (See Cheng et al. Biochemical Pharmacology Vol. 22 pp 3099-3108, expressly incorporated herein by reference.)
(§3) Table 1 discloses the activity of certain exemplary compounds of the invention in the above-described chimeric receptor transactivation assay, holoreceptor transactivation assay and a ligand binding assays. Particularly, the transactivation data pertaining to RAR receptors were obtained in the chimeric assay, and the data pertaining to transactivation of RXR receptors were obtained in the holoreceptor transactivation assay.

The target of assay [2] is T1, RXRα (Homo sapiens, UniProt P19793).
T1 construct: expressed in transfected cells
T1 sequence (P19793 1-462): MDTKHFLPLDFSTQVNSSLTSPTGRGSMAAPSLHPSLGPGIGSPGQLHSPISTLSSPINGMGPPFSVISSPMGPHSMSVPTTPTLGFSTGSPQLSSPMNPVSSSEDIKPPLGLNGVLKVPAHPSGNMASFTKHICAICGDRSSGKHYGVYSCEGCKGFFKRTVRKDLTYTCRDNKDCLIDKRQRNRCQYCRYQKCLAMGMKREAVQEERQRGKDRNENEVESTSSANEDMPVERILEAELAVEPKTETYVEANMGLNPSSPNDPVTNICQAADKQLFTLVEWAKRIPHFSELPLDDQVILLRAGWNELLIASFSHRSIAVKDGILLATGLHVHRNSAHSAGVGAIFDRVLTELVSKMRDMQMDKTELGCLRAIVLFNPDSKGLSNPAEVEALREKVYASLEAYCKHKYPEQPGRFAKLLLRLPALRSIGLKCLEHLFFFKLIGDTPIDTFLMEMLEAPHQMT
Nature of the assay: holoreceptor transactivation assay, RXRα. The settings on record: for EC50: holoreceptor transactivation, RXRα, read-out: RXR Trans. EC50 α; for Emax: relative to 10^-6 M cyclopropyl penta-2,4-dienoic acid reference (RXRs), read-out: % efficacy (RXRα transactivation). It counts as cell-based.
Description: as §1, §2, §3

The target of assay [3] is T2, RARγ (Homo sapiens, UniProt P13631).
T2 sequence (P13631 1-454): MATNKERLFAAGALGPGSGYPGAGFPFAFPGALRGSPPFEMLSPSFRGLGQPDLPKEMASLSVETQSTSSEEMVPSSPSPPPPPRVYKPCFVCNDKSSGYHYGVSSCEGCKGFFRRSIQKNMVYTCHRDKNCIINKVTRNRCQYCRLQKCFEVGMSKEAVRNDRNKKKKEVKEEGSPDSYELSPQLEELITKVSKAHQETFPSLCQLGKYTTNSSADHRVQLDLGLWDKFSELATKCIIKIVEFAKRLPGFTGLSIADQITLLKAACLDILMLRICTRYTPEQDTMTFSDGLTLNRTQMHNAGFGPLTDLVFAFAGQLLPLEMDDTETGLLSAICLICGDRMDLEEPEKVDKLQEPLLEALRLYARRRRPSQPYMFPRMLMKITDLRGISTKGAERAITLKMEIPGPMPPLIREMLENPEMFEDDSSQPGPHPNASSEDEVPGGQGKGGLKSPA
Briefly: ligand binding assay, RARγ. The settings on record: read-out: RAR Bind. Ki γ.
Description: as §1, §2, §3

Assay [4] concerns the target RXRβ. Briefly: ligand binding assay, RXRβ. The settings on record: read-out: RXR Bind Ki β.
Description: as §1, §2, §3

Assay [5] addresses T3, RARβ (Homo sapiens, UniProt P10826).
T3 sequence (P10826 1-448 isoform P10826-2): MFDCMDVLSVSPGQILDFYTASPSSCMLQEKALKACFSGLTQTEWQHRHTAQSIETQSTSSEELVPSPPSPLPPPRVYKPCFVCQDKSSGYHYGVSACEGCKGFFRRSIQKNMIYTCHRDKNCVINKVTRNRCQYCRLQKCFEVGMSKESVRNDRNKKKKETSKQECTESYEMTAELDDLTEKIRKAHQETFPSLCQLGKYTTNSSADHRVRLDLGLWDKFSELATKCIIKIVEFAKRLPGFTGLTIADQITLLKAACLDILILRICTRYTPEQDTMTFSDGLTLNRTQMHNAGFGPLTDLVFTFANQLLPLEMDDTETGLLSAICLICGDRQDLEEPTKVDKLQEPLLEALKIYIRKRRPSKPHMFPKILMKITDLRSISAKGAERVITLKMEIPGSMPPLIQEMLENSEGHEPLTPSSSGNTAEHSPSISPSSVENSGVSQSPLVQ
Nature of the assay: ligand binding assay, RARβ. The settings on record: read-out: RAR Bind. Ki β.
Description: as §1, §2, §3

A value given as a limit tells only on which side of the number the result lay.

One may read the Ki as the dissociation constant of the complex between target and ligand, obtained from inhibition or displacement. Broadly, the EC50 is the concentration that produces a half-maximal response.

For the compound `Cc1c(N(c2ccc(C(=O)O)cc2)C(C)C)cc2c(c1C(C)(C)C)OCC2(C)C` [Compound 73, 4-[Isopropyl-(7-t-butyl-3,3,6-trimethyl-2,3-dihydro-benzofuran-5-yl)-amino]-benzoic acid], the Ki in assay [1] was 236 nM; in assay [3], 2700 nM; in assay [4], 178 nM; in assay [5] it was greater than 10000 nM. The 50% effective concentration (EC50) in assay [2] came to 10 nM. For the same compound, the Emax in assay [2] was found to be 92%.

As to `CCc1cc(N(c2ccc(C(=O)O)cc2)C(C)C)cc2c1OCC2(C)C` [Compound 42, 4-[Isopropyl-(3,3-dimethyl-7-ethyl-2,3-dihydro-benzofuran-5-yl)-amino]-benzoic acid], the Ki in assay [1] is greater than 1000 nM; in assay [3], 4900 nM; in assay [4], greater than 1000 nM; in assay [5] it was greater than 10000 nM. Also, the EC50 in assay [2] was 203 nM. The Emax in assay [2] worked out at 100%.

Regarding `CCCN(c1ccc(C(=O)O)cc1)c1ccc2c(c1)C(C)(C)OC2(C)C` [Compound 84, 4-[n-Propyl-(1,1,3,3-tetramethyl-1,3-dihydro-isobenzofuran-5-yl)-amino]-benzoic acid], the Ki in assay [1] was greater than 1000 nM; in assay [3], greater than 10000 nM; in assay [4], 2000 nM; in assay [5], greater than 10000 nM. In addition, the EC50 in assay [2] was determined as 40 nM. Further, the Emax in assay [2] worked out at 121%.

For the compound `CCCCN(c1ccc(C(=O)O)cc1)c1ccc2c(c1)C(C)(C)OC2(C)C` [Compound 85, 4-[n-Butyl-(1,1,3,3-tetramethyl-1,3-dihydro-isobenzofuran-5-yl)-amino]-benzoic acid], the Ki in assay [1] was greater than 1000 nM; in assay [3] it was greater than 10000 nM; in assay [4] it was greater than 1000 nM; in assay [5], greater than 10000 nM. For the same compound, the EC50 in assay [2] came to 161 nM. For the same compound, the Emax in assay [2] was determined as 122%.

As for `CCN(c1ccc(C(=O)O)cc1)c1ccc2c(c1)C(C)(C)OC2(C)C` [Compound 83, 4-[Ethyl-(1,1,3,3-tetramethyl-1,3-dihydro-isobenzofuran-5-yl)-amino]-benzoic acid], the Ki in assay [1] was greater than 1000 nM; in assay [3] it was greater than 10000 nM; in assay [4], greater than 1000 nM; in assay [5], greater than 10000 nM. In assay [2], the EC50 worked out at 39 nM. For the same compound, in assay [2], the Emax came out at 107%.

As to `CC(C)N(c1ccc(C(=O)O)cc1)c1ccc2c(c1)C(C)(C)OC2(C)C` [Compound 87, 4-[i-Propyl-(1,1,3,3-tetramethyl-1,3-dihydro-isobenzofuran-5-yl)-amino]-benzoic acid], the Ki is 2100 nM in assay [1], greater than 10000 nM in assay [3], 2700 nM in assay [4] and greater than 10000 nM in assay [5]. The EC50 in assay [2] is 57 nM. Also, in assay [2], the Emax stood at 115%.

On to `CCN(c1ccc(C(=O)O)cc1)c1cc(C(C)(C)C)c2c(c1)C(C)(C)CO2` [Compound 32, 4-[Ethyl-(7-t-butyl-3,3-dimethyl-2,3-dihydro-benzofuran-5-yl)-amino]-benzoic acid], for which the Ki in assay [1] was 672 nM; in assay [3] it was 2000 nM; in assay [4], 342 nM; in assay [5] it was greater than 1000 nM. The EC50 in assay [2] turned out to be 98 nM. The Emax in assay [2] turned out to be 103%.

Take `CCN(c1ccc(C(=O)O)cc1)c1cc(C)c2c(c1)C(C)(C)CO2` [Compound 27, 4-[Ethyl-(3,3,7-trimethyl-2,3-dihydro-benzofuran-5-yl)-amino]-benzoic acid]: the Ki was greater than 100000 nM in assay [1], greater than 30000 nM in assay [3], greater than 100000 nM in assay [4] and greater than 30000 nM in assay [5]. Also, in assay [2], the EC50 turned out to be 1000 nM. Besides, in assay [2], the Emax was 80%.

On to `CC(C)c1cc(N(C)c2ccc(C(=O)O)cc2)cc2c1OCC2(C)C` [Compound 30, 4-[Methyl-(3,3-dimethyl-7-isopropyl-2,3-dihydro-benzofuran-5-yl)-amino]-benzoic acid], for which the inhibitory constant (Ki) was greater than 10000 nM in assay [1], 3300 nM in assay [3], 4600 nM in assay [4] and greater than 30000 nM in assay [5]. For the same compound, the EC50 in assay [2] turned out to be 1000 nM. The Emax in assay [2] was 75%.

In the case of `CCN(c1ccc(C(=O)O)cc1)c1cc(C(C)C)c2c(c1)C(C)(C)CO2` [Compound 31, 4-[Ethyl-(3,3-dimethyl-7-isopropyl-2,3-dihydro-benzofuran-5-yl)-amino]-benzoic acid], the inhibition constant Ki was 4100 nM in assay [1], 4000 nM in assay [3], 752 nM in assay [4] and 29000 nM in assay [5]. The EC50 in assay [2] worked out at 74 nM. Besides, in assay [2], the Emax was determined as 116%.

As for `CC(C)N(c1ccc(C(=O)O)cc1)c1cc(C(C)(C)C)c2c(c1)C(C)(C)CO2` [Compound 44, 4-[Isopropyl-(7-t-butyl-3,3-dimethyl-2,3-dihydro-benzofuran-5-yl)-amino]-benzoic acid], the Ki in assay [1] is 344 nM; in assay [3], 1600 nM; in assay [4] it was 215 nM; in assay [5], greater than 1000 nM. The concentration giving a half-maximal response (EC50) in assay [2] was found to be 22 nM. In assay [2], the Emax was determined as 73%.

`CCc1cc(N(CC)c2ccc(C(=O)O)cc2)cc2c1OCC2(C)C` [Compound 29, 4-[Ethyl-(3,3-dimethyl-7-ethyl-2,3-dihydro-benzofuran-5-yl)-amino]-benzoic acid]: the Ki was greater than 1000 nM in assay [1], 8400 nM in assay [3], greater than 1000 nM in assay [4] and greater than 10000 nM in assay [5]. Moreover, the 50% effective concentration (EC50) in assay [2] was 139 nM. The Emax in assay [2] worked out at 117%.

For `CC(C)c1cc(N(c2ccc(C(=O)O)cc2)C(C)C)cc2c1OCC2(C)C` [Compound 43], the EC50 in assay [2] was 16 nM. Besides, in assay [2], the Emax was 66%. Further, the Ki in assay [3] was 2600 nM; in assay [5], greater than 10000 nM.
